The target in test [1] is T1, hNET (Homo sapiens, UniProt P23975).
T1 construct: expressed in transfected cells; host or cells: HEK-293
In words: hNET membrane radioligand binding assay (Assay 1). The following applies: 3H-nisoxetine, membranes from HEK-293 cells expressing hNET; read-out: NET pKi (converted). How it is done:
(§1) Membrane radioligand binding assays were used to measure inhibition of labeled ligand (^3H-citalopram or ^3H-nisoxetine or ^3H-WIN35428) binding to membranes prepared from cells expressing the respective human recombinant transporter (hSERT or hNET or hDAT) in order to determine the pKi values of test compounds at the transporters.
(§2) Recombinant human embryonic kidney (HEK-293) derived cell lines stably transfected with hSERT or hNET, respectively, were grown in DMEM medium supplemented with 10% dialyzed FBS (for hSERT) or FBS (for hNET), 100 μg/ml penicillin, 100 μg/ml streptomycin, 2 mM L-glutamine and 250 μg/ml of the aminoglycoside antibiotic G418, in a 5% CO2 humidified incubator at 37° C. When cultures reached 80% confluence, the cells were washed thoroughly in PBS (without Ca^2+ and Mg^2+) and lifted with 5 mM EDTA in PBS. Cells were pelleted by centrifugation, resuspended in lysis buffer (10 mM Tris-HCl, pH7.5 containing 1 mM EDTA), homogenized, pelleted by centrifugation, then resuspended in 50 mM Tris-HCl, pH 7.5 and 10% sucrose at 4° C. Protein concentration of the membrane suspension was determined using a Bio-Rad Bradford Protein Assay kit. Membranes were snap frozen and stored at −80° C. Chinese hamster ovary membranes expressing hDAT (CHO-DAT) were purchased from PerkinElmer and stored at −80° C.
(§3) Binding assays were performed in a 96-well assay plate in a total volume of 200 μL assay buffer (50 mM Tris-HCl, 120 mM NaCl, 5 mM KCl, pH 7.4) with 0.5, 1, and 3 μg membrane protein, for SERT, NET and DAT, respectively.
(§4) Stock solutions (10 mM in DMSO) of test compound were prepared and serial dilutions made using Dilution Buffer (50 mM Tris-HCl, 120 mM NaCl, 5 mM KCl, pH 7.4, 0.1% BSA, 400 μM ascorbic acid).
(§5) Following a 60 minute incubation at 22° C. (or a period sufficient to reach equilibrium), the membranes were harvested by rapid filtration over a 96-well UniFilter GF/B plate, pretreated with 0.3% polyethyleneimine, and washed 6 times with 300 μl wash buffer (50 mM Tris-HCl, 0.9% NaCl, pH 7.5 at 4° C.). Plates were dried overnight at room temperature, ˜45 μl of MicroScint™-20 (Perkin Elmer) added and bound radioactivity quantitated via liquid scintillation spectroscopy. Inhibition curves and saturation isotherms were analyzed using GraphPad Prism Software package (GraphPad Software, Inc., San Diego, Calif.). IC50 values were generated from concentration response curves using the Sigmoidal Dose Response (variable slope) algorithm in Prism GraphPad. Kd and Bmax values for the radioligand were generated from saturation isotherms using the Saturation Binding Global Fit algorithm in Prism GraphPad. pKi (negative decadic logarithm of Ki) values for test compounds were calculated from the best-fit IC50 values, and the Kd value of the radioligand, using the Cheng-Prusoff equation (Cheng & Prusoff (1973) Biochem. Pharmacol. 22(23):3099-3108): Ki=IC50/(1+[L]/Kd), where [L]=concentration radioligand.

Test [2] addresses T2, hSERT (Homo sapiens, UniProt P31645).
T2 construct: expressed in transfected cells; host or cells: HEK-293
Description: hSERT membrane radioligand binding assay (Assay 1). Particulars: 3H-citalopram, membranes from HEK-293 cells expressing hSERT; read-out: SERT pKi (converted). How it is done: as §1, §2, §3, §4, §5

Some results are limits rather than exact numbers.

T1 sequence (P23975 whole entry): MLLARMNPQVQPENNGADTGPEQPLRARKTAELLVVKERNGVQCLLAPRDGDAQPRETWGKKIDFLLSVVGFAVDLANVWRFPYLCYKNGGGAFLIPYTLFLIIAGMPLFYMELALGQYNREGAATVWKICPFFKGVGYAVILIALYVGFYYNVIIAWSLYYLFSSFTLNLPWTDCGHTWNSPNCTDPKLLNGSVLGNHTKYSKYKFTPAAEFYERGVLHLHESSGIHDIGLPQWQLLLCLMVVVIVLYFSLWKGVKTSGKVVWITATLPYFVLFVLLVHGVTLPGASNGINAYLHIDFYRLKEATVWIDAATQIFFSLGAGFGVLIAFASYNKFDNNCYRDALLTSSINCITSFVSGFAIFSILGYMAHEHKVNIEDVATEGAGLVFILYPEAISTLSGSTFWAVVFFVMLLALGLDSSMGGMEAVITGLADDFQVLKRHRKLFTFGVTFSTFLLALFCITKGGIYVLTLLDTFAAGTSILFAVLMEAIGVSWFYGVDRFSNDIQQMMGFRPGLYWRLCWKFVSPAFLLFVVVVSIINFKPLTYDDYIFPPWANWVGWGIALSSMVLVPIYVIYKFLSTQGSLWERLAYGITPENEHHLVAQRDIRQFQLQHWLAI
T2 sequence (P31645 whole entry): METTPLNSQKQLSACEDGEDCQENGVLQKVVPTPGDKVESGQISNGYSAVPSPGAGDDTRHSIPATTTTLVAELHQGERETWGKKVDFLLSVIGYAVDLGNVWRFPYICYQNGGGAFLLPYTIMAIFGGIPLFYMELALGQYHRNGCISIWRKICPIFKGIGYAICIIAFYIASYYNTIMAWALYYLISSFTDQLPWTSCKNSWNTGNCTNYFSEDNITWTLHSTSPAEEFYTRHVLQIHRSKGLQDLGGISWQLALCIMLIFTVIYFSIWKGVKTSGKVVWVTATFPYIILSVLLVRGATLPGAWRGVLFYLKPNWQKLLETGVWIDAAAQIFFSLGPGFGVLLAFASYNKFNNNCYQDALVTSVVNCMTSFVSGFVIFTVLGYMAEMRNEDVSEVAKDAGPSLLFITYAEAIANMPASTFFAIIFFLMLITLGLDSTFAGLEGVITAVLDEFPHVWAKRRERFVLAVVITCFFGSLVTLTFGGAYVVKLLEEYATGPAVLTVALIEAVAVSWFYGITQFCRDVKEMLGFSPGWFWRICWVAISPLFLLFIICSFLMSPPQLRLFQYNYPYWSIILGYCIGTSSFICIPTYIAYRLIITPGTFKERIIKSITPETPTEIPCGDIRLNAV

`Ic1cccc(OCc2ccccc2N2CCNCC2)c1` [Example 1, 1-[2-(3-Iodophenoxymethyl)phenyl]piperazine]: the Ki in test [1] and in test [2] was at most 100 nM in each case.

Regarding `Fc1ccccc1OCc1ccccc1N1CCNCC1` [Example 2-1], the figures for the Ki in test [1] and in test [2] were at most 100 nM and at most 10000 nM, respectively.

For `Clc1ccccc1OCc1ccccc1N1CCNCC1` [Example 2-2], the figures for the Ki in test [1] and in test [2] were at most 10000 nM and at most 100 nM, respectively.

`Ic1ccccc1OCc1ccccc1N1CCNCC1` [Example 2-3]: the Ki in test [1] and in test [2] was at most 100 nM in each case.

For `Cc1ccccc1OCc1ccccc1N1CCNCC1` [Example 2-4], the Ki is at most 10000 nM in test [1] and at most 100 nM in test [2].

On to `CC(C)c1ccccc1OCc1ccccc1N1CCNCC1` [Example 2-5], for which the Ki is at most 10000 nM in test [1] and at most 100 nM in test [2].

With `CCc1ccccc1OCc1ccccc1N1CCNCC1` [Example 2-6], the Ki in test [1] was at most 10000 nM; in test [2], at most 100 nM.

For `COc1ccccc1OCc1ccccc1N1CCNCC1` [Example 2-7], the Ki in test [1] was at most 10000 nM; in test [2], at most 100 nM.

In the case of `c1ccc(-c2ccccc2OCc2ccccc2N2CCNCC2)cc1` [Example 2-8], the Ki in test [1] was at most 10000 nM; in test [2], at most 100 nM.

With `c1ccc(Cc2ccccc2OCc2ccccc2N2CCNCC2)cc1` [Example 2-9], the Ki is at most 10000 nM in test [1] and at most 100 nM in test [2].

Turning to `c1ccc(Oc2ccccc2OCc2ccccc2N2CCNCC2)cc1` [Example 2-10], the results for the Ki in test [1] and in test [2] were at most 100 nM and at most 10000 nM, respectively.

For the compound `c1ccc(COc2ccccc2OCc2ccccc2N2CCNCC2)cc1` [Example 2-11], the Ki in test [1] and in test [2] was at most 10000 nM throughout.

Consider `Brc1cccc(OCc2ccccc2N2CCNCC2)c1` [Example 2-13], for which the Ki in test [1] and in test [2] was at most 100 nM in each case.

As for `Cc1cccc(OCc2ccccc2N2CCNCC2)c1` [Example 2-14], the results for the Ki in test [1] and in test [2] were at most 10000 nM and at most 100 nM, respectively.

Consider `CC(C)(C)c1cccc(OCc2ccccc2N2CCNCC2)c1` [Example 2-15], for which the Ki in test [1] and in test [2] was at most 10000 nM each time.

With `COc1cccc(OCc2ccccc2N2CCNCC2)c1` [Example 2-16], the Ki is at most 10000 nM in test [1] and at most 100 nM in test [2].

`Cc1ccc(OCc2ccccc2N2CCNCC2)cc1` [Example 2-17]: the Ki in test [1] and in test [2] was at most 10000 nM throughout.

For `Fc1c(Cl)cccc1OCc1ccccc1N1CCNCC1` [Example 2-18], the Ki in test [1] was at most 10000 nM; in test [2], at most 100 nM.

Consider `Clc1cccc(OCc2ccccc2N2CCNCC2)c1Cl` [Example 2-19], for which the Ki in test [1] was at most 10000 nM; in test [2], at most 100 nM.

For the compound `Cc1c(F)cccc1OCc1ccccc1N1CCNCC1` [Example 2-20], the values for the Ki in test [1] and in test [2] were at most 10000 nM and at most 100 nM, respectively.

Turning to `Cc1c(Cl)cccc1OCc1ccccc1N1CCNCC1` [Example 2-21], the Ki in test [1] and in test [2] was at most 100 nM each time.

Turning to `N#Cc1c(F)cccc1OCc1ccccc1N1CCNCC1` [Example 2-22], the figures for the Ki in test [1] and in test [2] were at most 10000 nM and at most 100 nM, respectively.

Take `Fc1ccc(F)c(OCc2ccccc2N2CCNCC2)c1` [Example 2-23]: the results for the Ki in test [1] and in test [2] were at most 10000 nM and at most 100 nM, respectively.

Turning to `Fc1ccc(Cl)cc1OCc1ccccc1N1CCNCC1` [Example 2-24], the Ki in test [1] was at most 10000 nM; in test [2] it was at most 100 nM.

Take `Fc1ccc(Br)cc1OCc1ccccc1N1CCNCC1` [Example 2-25]: the Ki in test [1] and in test [2] was at most 100 nM throughout.

For `Clc1ccc(Cl)c(OCc2ccccc2N2CCNCC2)c1` [Example 2-26], the Ki in test [1] was at most 10000 nM; in test [2] it was at most 100 nM.

For the compound `Fc1ccc(Cl)c(OCc2ccccc2N2CCNCC2)c1` [Example 2-27], the Ki in test [1] was at most 10000 nM; in test [2], at most 100 nM.

In the case of `Fc1ccc(Br)c(OCc2ccccc2N2CCNCC2)c1` [Example 2-28], the results for the Ki in test [1] and in test [2] were at most 10000 nM and at most 100 nM, respectively.

On to `Cc1ccc(F)cc1OCc1ccccc1N1CCNCC1` [Example 2-29], for which the Ki is at most 10000 nM in test [1] and at most 100 nM in test [2].

On to `Cc1ccc(Cl)cc1OCc1ccccc1N1CCNCC1` [Example 2-30], for which the Ki in test [1] and in test [2] was at most 100 nM in each case.

Regarding `COc1ccc(Cl)cc1OCc1ccccc1N1CCNCC1` [Example 2-31], the Ki was at most 10000 nM in test [1] and at most 100 nM in test [2].

Turning to `N#Cc1ccc(Cl)cc1OCc1ccccc1N1CCNCC1` [Example 2-32], the values for the Ki in test [1] and in test [2] were at most 10000 nM and at most 100 nM, respectively.

In the case of `Fc1ccc(OCc2ccccc2N2CCNCC2)cc1F` [Example 2-33], the Ki in test [1] and in test [2] was at most 100 nM each time.

For `Fc1cc(OCc2ccccc2N2CCNCC2)ccc1Cl` [Example 2-34], the Ki in test [1] and in test [2] was at most 100 nM throughout.

On to `Clc1ccc(OCc2ccccc2N2CCNCC2)cc1Cl` [Example 2-35], for which the Ki in test [1] and in test [2] was at most 100 nM each time.

For the compound `Fc1cc(F)cc(OCc2ccccc2N2CCNCC2)c1` [Example 2-36], the Ki in test [1] is at most 10000 nM; in test [2], at most 100 nM.

For the compound `Clc1cc(Cl)cc(OCc2ccccc2N2CCNCC2)c1` [Example 2-37], the Ki is at most 10000 nM in test [1] and at most 100 nM in test [2].

`CC(C)c1cccc(C(C)C)c1OCc1ccccc1N1CCNCC1` [Example 2-38]: the Ki in test [1] and in test [2] was at most 10000 nM each time.

Turning to `Clc1cc(Cl)c(OCc2ccccc2N2CCNCC2)cc1Cl` [Example 2-39], the Ki in test [1] and in test [2] was at most 100 nM throughout.

Turning to `Clc1cc(Cl)c(Cl)c(OCc2ccccc2N2CCNCC2)c1Cl` [Example 2-40], the Ki is at most 10000 nM in test [1] and at most 100 nM in test [2].

(Values after US9012460B2, “1-(2-phenoxymethylphenyl)piperazine compounds” (Theravance Biopharma R&D IP, LLC, priority 2010, dated 2015).)
